Source: paper PMC2248166, “Quantitative peptide binding motifs for 19 human and mouse MHC class I molecules derived using positional scanning combinatorial peptide libraries” (Immunome Research, 2008)
Where a SMILES comes first, the peptide text is derived from it.

Molecular target: HLA A*3001 (Homo sapiens, UniProt P04439, D140H/D185E/E176W/F33S/G80R/H175R/K168Q/R138E/R41S)
Experiment: biochemical
Type: binding

Chain of HLA A*3001 (P04439 25-365 limits assumed, stated change not applied): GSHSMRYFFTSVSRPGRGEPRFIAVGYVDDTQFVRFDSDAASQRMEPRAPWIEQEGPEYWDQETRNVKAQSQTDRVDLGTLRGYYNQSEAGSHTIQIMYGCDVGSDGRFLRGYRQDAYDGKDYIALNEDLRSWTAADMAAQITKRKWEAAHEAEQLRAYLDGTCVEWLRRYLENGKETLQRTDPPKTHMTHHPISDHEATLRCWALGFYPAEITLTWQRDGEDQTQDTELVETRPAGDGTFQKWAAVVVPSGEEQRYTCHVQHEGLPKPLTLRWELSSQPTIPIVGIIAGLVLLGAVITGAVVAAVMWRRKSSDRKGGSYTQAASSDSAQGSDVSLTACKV

## CC[C@H](C)[C@H](NC(=O)[C@@H]1CCCN1C(=O)CNC(=O)[C@H](CCSC)NC(=O)[C@H](CCCCN)NC(=O)[C@H](CCC(N)=O)NC(=O)[C@@H](N)CCCCN)C(=O)N[C@@H](Cc1ccc(O)cc1)C(=O)N[C@@H](C)C(=O)O [3102.0136] (H-KQKMGPIYA-OH)
  IC50: 22 nM

## CC[C@H](C)[C@H](NC(=O)[C@H](CCCCN)NC(=O)[C@H](CC(N)=O)NC(=O)[C@H](CC(N)=O)NC(=O)[C@H](CCCCN)NC(=O)[C@@H](NC(=O)[C@@H](N)CCSC)C(C)C)C(=O)N[C@@H](CCC(N)=O)C(=O)N[C@@H](CCCCN)C(=O)O [3102.0137] (H-MVKNNKIQK-OH)
  IC50: 12 nM

## CC[C@H](C)[C@H](NC(=O)[C@H](Cc1ccccc1)NC(=O)[C@H](CCCCN)NC(=O)[C@H](Cc1ccc(O)cc1)NC(=O)[C@H](Cc1ccccc1)NC(=O)[C@H](C)NC(=O)[C@H](CCCCN)NC(=O)[C@@H](NC(=O)[C@@H](N)Cc1c[nH]cn1)C(C)C)C(=O)O [3102.0138] (H-HVKAFYKFI-OH)
  IC50: 0.35 nM

## CC[C@H](C)[C@H](NC(=O)[C@H](C)NC(=O)[C@H](CCCNC(=N)N)NC(=O)[C@@H](NC(=O)[C@@H](N)CCCNC(=N)N)[C@@H](C)O)C(=O)N[C@@H](CC(N)=O)C(=O)N[C@@H](CCCCN)C(=O)N[C@@H](Cc1ccc(O)cc1)C(=O)N[C@@H](CO)C(=O)O [3102.0141] (H-RTRAINKYS-OH)
  IC50: 13 nM

## CC(C)[C@H](NC(=O)[C@H](Cc1ccc(O)cc1)NC(=O)[C@H](CO)NC(=O)[C@H](Cc1ccc(O)cc1)NC(=O)[C@@H](NC(=O)[C@@H]1CCCN1C(=O)[C@H](CCCCN)NC(=O)[C@H](Cc1ccc(O)cc1)NC(=O)[C@@H](N)CCCCN)C(C)C)C(=O)O [3102.0143] (H-KYKPVYSYV-OH)
  IC50: 0.74 nM

## CC(C)[C@H](NC(=O)[C@H](CCCCN)NC(=O)[C@H](Cc1ccccc1)NC(=O)[C@@H](NC(=O)[C@H](CC(=O)O)NC(=O)[C@H](Cc1ccc(O)cc1)NC(=O)[C@H](CCCNC(=N)N)NC(=O)[C@@H](NC(=O)[C@@H](N)CCCNC(=N)N)[C@@H](C)O)[C@@H](C)O)C(=O)O [3102.0144] (H-RTRYDTFKV-OH)
  IC50: 0.2 nM

## CC(C)C[C@H](NC(=O)[C@H](Cc1ccccc1)NC(=O)[C@H](CO)NC(=O)[C@H](CCCCN)NC(=O)[C@H](CC(C)C)NC(=O)[C@H](CCC(N)=O)NC(=O)[C@H](CCCCN)NC(=O)[C@H](CO)NC(=O)[C@@H](N)CCCCN)C(=O)O [3102.0146] (H-KSKQLKSFL-OH)
  IC50: 13 nM

## CC[C@H](C)[C@H](NC(=O)[C@H](Cc1ccc(O)cc1)NC(=O)[C@H](CC(C)C)NC(=O)[C@@H]1CCCN1C(=O)[C@H](CC(=O)O)NC(=O)[C@H](CCCNC(=N)N)NC(=O)[C@@H](NC(=O)[C@@H](N)CCSC)[C@@H](C)O)C(=O)N[C@@H](Cc1ccc(O)cc1)C(=O)O [3102.0147] (H-MTRDPLYIY-OH)
  IC50: 17 nM

## C[C@H](N)C(=O)N[C@H](C(=O)N[C@@H](C)C(=O)N[C@@H](CCCNC(=N)N)C(=O)N[C@@H](CO)C(=O)N[C@@H](CO)C(=O)N1CCC[C@H]1C(=O)N[C@@H](CCC(=O)O)C(=O)N[C@@H](CCCCN)C(=O)O)[C@@H](C)O [3102.0148] (H-ATARSSPEK-OH)
  IC50: 0.58 nM

## CSCC[C@H](N)C(=O)N[C@H](C(=O)N[C@@H](CCCNC(=N)N)C(=O)N[C@@H](CC(C)C)C(=O)N1CCC[C@H]1C(=O)N[C@@H](Cc1ccc(O)cc1)C(=O)N[C@@H](CCCCN)C(=O)N[C@@H](CC(=O)O)C(=O)N[C@@H](C)C(=O)O)C(C)C [3102.0149] (H-MVRLPYKDA-OH)
  IC50: 0.76 nM

## CC[C@H](C)[C@H](NC(=O)[C@H](CC(N)=O)NC(=O)[C@@H](NC(=O)[C@H](CC(N)=O)NC(=O)[C@H](CCCCN)NC(=O)[C@H](CO)NC(=O)[C@@H](N)CCCCN)[C@@H](C)CC)C(=O)N[C@@H](CCC(=O)O)C(=O)N[C@H](C(=O)O)C(C)C [3102.0150] (H-KSKNINIEV-OH)
  IC50: 0.32 nM

## CC[C@H](C)[C@H](NC(=O)[C@H](CC(=O)O)NC(=O)[C@H](CC(C)C)NC(=O)[C@@H](NC(=O)[C@@H](N)CCCCN)[C@@H](C)O)C(=O)N[C@@H](CO)C(=O)N[C@@H](CO)C(=O)N[C@@H](Cc1ccccc1)C(=O)N[C@@H](Cc1ccc(O)cc1)C(=O)O [3102.0151] (H-KTLDISSFY-OH)
  IC50: 23 nM

## CC(C)[C@H](NC(=O)[C@H](CO)NC(=O)[C@@H](NC(=O)[C@H](Cc1ccc(O)cc1)NC(=O)[C@@H](NC(=O)[C@H](Cc1ccccc1)NC(=O)[C@H](CCCCN)NC(=O)[C@H](CO)NC(=O)[C@H](C)N)C(C)C)C(C)C)C(=O)O [3102.0152] (H-ASKFVYVSV-OH)
  IC50: 3.1 nM

## CC[C@H](C)[C@H](NC(=O)[C@H](CCCCN)NC(=O)[C@H](CO)NC(=O)[C@@H](NC(=O)[C@@H](NC(=O)[C@H](CCCCN)NC(=O)[C@H](CCCNC(=N)N)NC(=O)[C@@H](NC(=O)[C@@H](N)CCCCN)C(C)C)[C@@H](C)CC)[C@@H](C)CC)C(=O)O [3102.0153] (H-KVRKIISKI-OH)
  IC50: 27 nM

## CC(C)C[C@H](NC(=O)[C@H](Cc1ccc(O)cc1)NC(=O)[C@H](CCCNC(=N)N)NC(=O)[C@@H](NC(=O)[C@@H](N)CCCNC(=N)N)C(C)C)C(=O)N[C@H](C(=O)N[C@@H](CCCNC(=N)N)C(=O)N[C@@H](CC(N)=O)C(=O)N[C@@H](Cc1ccc(O)cc1)C(=O)O)[C@@H](C)O [3102.0155] (H-RVRYLTRNY-OH)
  IC50: 5.6 nM

## CC(C)C[C@H](NC(=O)[C@H](Cc1ccccc1)NC(=O)[C@@H](NC(=O)CNC(=O)[C@H](Cc1ccc(O)cc1)NC(=O)[C@H](CCCNC(=N)N)NC(=O)[C@H](Cc1ccc(O)cc1)NC(=O)[C@@H](N)CCCCN)[C@@H](C)O)C(=O)N[C@@H](Cc1ccc(O)cc1)C(=O)O [3102.0156] (H-KYRYGTFLY-OH)
  IC50: 1.1 nM

## CC[C@H](C)[C@H](NC(=O)[C@@H](N)CO)C(=O)N[C@@H](CCCNC(=N)N)C(=O)N[C@@H](CCCNC(=N)N)C(=O)N[C@@H](CC(N)=O)C(=O)N[C@@H](CC(C)C)C(=O)N[C@@H](C)C(=O)N[C@@H](CC(C)C)C(=O)N[C@@H](CCCCN)C(=O)O [3102.0157] (H-SIRRNLALK-OH)
  IC50: 12 nM

## CC(C)C[C@H](NC(=O)[C@H](CC(C)C)NC(=O)[C@H](CCCNC(=N)N)NC(=O)[C@@H](NC(=O)[C@@H](N)CO)C(C)C)C(=O)N[C@@H](CC(N)=O)C(=O)N[C@@H](Cc1ccc(O)cc1)C(=O)N[C@@H](Cc1ccccc1)C(=O)N[C@@H](CCCCN)C(=O)O [3102.0158] (H-SVRLLNYFK-OH)
  IC50: 0.24 nM

## CC[C@H](C)[C@H](NC(=O)[C@H](CO)NC(=O)[C@@H](NC(=O)[C@@H](N)CCCCN)C(C)C)C(=O)N[C@@H](CC(C)C)C(=O)N[C@@H](Cc1c[nH]cn1)C(=O)N1CCC[C@H]1C(=O)N[C@H](C(=O)N[C@@H](CO)C(=O)O)[C@@H](C)CC [3102.0159] (H-KVSILHPIS-OH)
  IC50: 11 nM

## CC[C@H](C)[C@H](NC(=O)[C@H](C)N)C(=O)N[C@@H](CCCNC(=N)N)C(=O)N[C@@H](C)C(=O)NCC(=O)N[C@@H](Cc1ccc(O)cc1)C(=O)N[C@@H](CO)C(=O)N[C@H](C(=O)N[C@H](C(=O)O)C(C)C)[C@@H](C)CC [3102.0160] (H-AIRAGYSIV-OH)
  IC50: 1.4 nM

## CC(C)C[C@H](NC(=O)[C@H](CC(N)=O)NC(=O)[C@H](CC(C)C)NC(=O)[C@H](Cc1c[nH]c2ccccc12)NC(=O)[C@H](CO)NC(=O)[C@H](CC(N)=O)NC(=O)[C@H](CCCCN)NC(=O)[C@H](C)NC(=O)[C@@H](N)CO)C(=O)O [3102.0164] (H-SAKNSWLNL-OH)
  IC50: 0.57 nM

## CC[C@H](C)[C@H](NC(=O)[C@@H]1CCCN1C(=O)[C@H](CCCCN)NC(=O)[C@@H](NC(=O)[C@@H](N)CCCNC(=N)N)[C@@H](C)O)C(=O)N[C@@H](CO)C(=O)N[C@@H](CCSC)C(=O)N[C@@H](Cc1ccc(O)cc1)C(=O)N[C@@H](Cc1ccccc1)C(=O)O [3102.0165] (H-RTKPISMYF-OH)
  IC50: 0.6 nM

## CC[C@H](C)[C@H](NC(=O)[C@H](CO)NC(=O)[C@@H](NC(=O)[C@H](CCC(N)=O)NC(=O)[C@H](CCCCN)NC(=O)[C@@H](NC(=O)[C@@H](N)CCCNC(=N)N)C(C)C)[C@@H](C)CC)C(=O)N[C@@H](CO)C(=O)N[C@H](C(=O)O)[C@@H](C)O [3102.0166] (H-RVKQISIST-OH)
  IC50: 0.37 nM

## CC(C)C[C@H](NC(=O)[C@H](CO)NC(=O)[C@@H]1CCCN1C(=O)[C@H](CC(C)C)NC(=O)[C@H](Cc1ccc(O)cc1)NC(=O)[C@H](CCCNC(=N)N)NC(=O)[C@@H](NC(=O)[C@@H](N)CCCNC(=N)N)[C@@H](C)O)C(=O)N[C@H](C(=O)O)C(C)C [3102.0167] (H-RTRYLPSLV-OH)
  IC50: 0.49 nM

## C[C@@H](O)[C@H](N)C(=O)N[C@H](C(=O)N[C@@H](CCCCN)C(=O)N[C@@H](CC(=O)O)C(=O)N[C@@H](Cc1ccc(O)cc1)C(=O)N[C@@H](Cc1ccccc1)C(=O)N[C@@H](CO)C(=O)N[C@@H](Cc1ccccc1)C(=O)N[C@@H](CCCCN)C(=O)O)[C@@H](C)O [3102.0168] (H-TTKDYFSFK-OH)
  IC50: 1.2 nM

## CC[C@H](C)[C@H](NC(=O)[C@@H](NC(=O)[C@@H](N)CCCNC(=N)N)[C@@H](C)O)C(=O)N[C@@H](CS)C(=O)N[C@H](C(=O)N[C@@H](CC(C)C)C(=O)N1CCC[C@H]1C(=O)N[C@@H](Cc1ccc(O)cc1)C(=O)N[C@@H](CC(C)C)C(=O)O)[C@@H](C)O [3102.0170] (H-RTICTLPYL-OH)
  IC50: 0.74 nM

## CC(C)C[C@H](NC(=O)[C@H](Cc1ccc(O)cc1)NC(=O)[C@H](CO)NC(=O)[C@H](CO)NC(=O)[C@H](CO)NC(=O)[C@@H](NC(=O)[C@@H](N)CO)[C@@H](C)O)C(=O)N[C@@H](Cc1ccc(O)cc1)C(=O)N[C@@H](C)C(=O)O [3102.0171] (H-STSSSYLYA-OH)
  IC50: 13 nM

## CSCC[C@H](NC(=O)[C@H](CCCCN)NC(=O)[C@H](CCCCN)NC(=O)[C@H](Cc1ccc(O)cc1)NC(=O)[C@H](CCCNC(=N)N)NC(=O)[C@H](C)NC(=O)[C@@H](N)CCCNC(=N)N)C(=O)N[C@@H](CC(C)C)C(=O)N[C@@H](CCCCN)C(=O)O [3102.0172] (H-RARYKKMLK-OH)
  IC50: 1 nM

## CSCC[C@H](N)C(=O)N[C@@H](CC(C)C)C(=O)N[C@@H](CCCNC(=N)N)C(=O)N[C@@H](Cc1ccccc1)C(=O)N[C@@H](C)C(=O)N[C@@H](CC(N)=O)C(=O)N1CCC[C@H]1C(=O)N[C@@H](CC(C)C)C(=O)N[C@@H](CO)C(=O)O [3102.0173] (H-MLRFANPLS-OH)
  IC50: 0.17 nM
